Molecular target: T1, LIPG (endothelial lipase) (Homo sapiens, UniProt Q9Y5X9)
T1 construct: LIPG overexpressed in MDA-MB-468 cells
T1 sequence (Q9Y5X9 21-500): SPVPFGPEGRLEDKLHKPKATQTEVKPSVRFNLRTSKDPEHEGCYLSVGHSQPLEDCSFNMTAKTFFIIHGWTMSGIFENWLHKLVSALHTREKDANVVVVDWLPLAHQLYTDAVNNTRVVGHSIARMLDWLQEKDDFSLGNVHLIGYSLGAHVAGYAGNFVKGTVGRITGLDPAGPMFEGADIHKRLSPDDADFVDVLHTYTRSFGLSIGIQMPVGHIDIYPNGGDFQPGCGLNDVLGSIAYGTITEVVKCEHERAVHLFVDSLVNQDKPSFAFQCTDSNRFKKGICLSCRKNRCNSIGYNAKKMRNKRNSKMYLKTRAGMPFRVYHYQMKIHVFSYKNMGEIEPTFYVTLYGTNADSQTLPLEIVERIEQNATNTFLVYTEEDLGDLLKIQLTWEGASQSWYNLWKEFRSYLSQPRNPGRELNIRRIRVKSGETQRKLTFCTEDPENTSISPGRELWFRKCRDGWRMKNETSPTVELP
Assay: cell-based fluorogenic phospholipase A1 assay (PED-A1 substrate) with LIPG-overexpressing MDA-MB-468 cells, parental-cell background subtracted

IC50: 2.17 µM
Structure (SMILES): O=C(O)c1cc(C(F)(F)F)ccc1N1CC[C@H](OCc2ccccn2)C1 [XEN445]
